# Measurements published in patent US3954733A, “Naphthyridine-3-carboxamido-benzylpenicillins and salts thereof” (Sumitomo Chemical Company, Limited, priority 1973, dated 1976).
# Experiments:
# Assay in all cases: minimal inhibitory concentration, agar dilution method
# Type in all cases: cell-based
# Proteus vulgaris HV19 = system: Proteus vulgaris HV19
# [1] = system: Pseudomonas aeruginosa 104
# Text: (§1) When determined according to the agar dilution method, the penicillins (I) afford the minimal inhibitory concentrations against test microorganisms as shown in Table 2.
# Escherichia coli NIHJ = system: Escherichia coli NIHJ
# Text: as §1
# [2] = system: Staphylococcus aureus 209P
# Text: as §1
# Proteus miravilis GN2425 = system: Proteus miravilis GN2425
Compound,MIC (Proteus vulgaris HV19),MIC [1],MIC (Escherichia coli NIHJ),MIC [2],MIC (Proteus miravilis GN2425)
CCOC(=O)Oc1ccc([C@@H](NC(=O)c2cnc3scnc3c2O)C(=O)N[C@@H]2C(=O)N3[C@@H]2SC(C)(C)[C@@H]3C(=O)O)cc1 [Example 42],0.2 µg/mL,6.25 µg/mL,3.13 µg/mL,0.78 µg/mL,6.25 µg/mL
CCOC(=O)Oc1ccc([C@@H](NC(=O)c2cnc3cc([N+](=O)[O-])ccc3c2O)C(=O)N[C@@H]2C(=O)N3[C@@H]2SC(C)(C)[C@@H]3C(=O)O)cc1 [Example 20],,12.5 µg/mL,12.5 µg/mL,0.78 µg/mL,6.5 µg/mL
"CC(C)(C)C(=O)Oc1ccc([C@@H](NC(=O)c2cnc3ccccc3c2O)C(=O)N[C@@H]2C(=O)N3[C@@H]2SC(C)(C)[C@@H]3C(=O)O)cc1 [Example 4, D-α-(4-hydroxyquinoline-3-carboxamido)-p-pivaloyloxybenzylpenicillin]",0.2 µg/mL,6.25 µg/mL,6.25 µg/mL,0.39 µg/mL,6.25 µg/mL
"CC1(C)S[C@@H]2[C@H](NC(=O)C(NC(=O)c3cnc4cccnc4c3O)c3ccc(O)cc3)C(=O)N2[C@H]1C(=O)O (mixture of isomers) [Example 2, DL-α-(4-hydroxy-1,5-naphthyridine-3-carboxamido)-p-hydroxybenzylpenicillin]",0.025 µg/mL,,3.13 µg/mL,,3.13 µg/mL
"CC1(C)S[C@@H]2[C@H](NC(=O)[C@H](NC(=O)c3nnc4ccccc4c3O)c3ccc(O)cc3)C(=O)N2[C@H]1C(=O)O [Example 8, D-α-(4-hydroxycinnoline-3-carboxamido)-p-hydroxybenzylpenicillin]",,12.5 µg/mL,12.5 µg/mL,0.78 µg/mL,12.5 µg/mL
CC1(C)S[C@@H]2[C@H](NC(=O)[C@H](NC(=O)c3cnc4ccccc4c3O)c3ccc(O)c(Cl)c3)C(=O)N2[C@H]1C(=O)O [Example 14],,6.25 µg/mL,6.25 µg/mL,0.78 µg/mL,6.25 µg/mL
CC1(C)S[C@@H]2[C@H](NC(=O)[C@H](NC(=O)c3cnc4cc(C(F)(F)F)ccc4c3O)c3ccc(O)cc3)C(=O)N2[C@H]1C(=O)O [Example 11],,12.5 µg/mL,12.5 µg/mL,,3.13 µg/mL

# Second part, the compound after the results:
MIC (Proteus vulgaris HV19),MIC [1],MIC (Escherichia coli NIHJ),MIC [2],MIC (Proteus miravilis GN2425),Compound
0.05 µg/mL,3.13 µg/mL,3.13 µg/mL,0.78 µg/mL,3.13 µg/mL,CCOC(=O)Oc1ccc([C@@H](NC(=O)c2cnc3c(OC)nc(OC)nc3c2O)C(=O)N[C@@H]2C(=O)N3[C@@H]2SC(C)(C)[C@@H]3C(=O)O)cc1 [Example 36]
0.05 µg/mL,1.56 µg/mL,1.56 µg/mL,0.78 µg/mL,1.56 µg/mL,Cc1ccc2ncc(C(=O)N[C@@H](C(=O)N[C@@H]3C(=O)N4[C@@H]3SC(C)(C)[C@@H]4C(=O)O)c3ccc(O)cc3)c(O)c2n1 [Example 18]
0.2 µg/mL,3.13 µg/mL,,0.39 µg/mL,3.13 µg/mL,CCOC(=O)Oc1ccc([C@@H](NC(=O)c2cnc3cc4c(cc3c2S)OCO4)C(=O)N[C@@H]2C(=O)N3[C@@H]2SC(C)(C)[C@@H]3C(=O)O)cc1 [Example 38]
0.1 µg/mL,6.25 µg/mL,3.13 µg/mL,0.78 µg/mL,3.13 µg/mL,CCOC(=O)Oc1ccc([C@@H](NC(=O)c2cnc3cn[nH]c3c2O)C(=O)N[C@@H]2C(=O)N3[C@@H]2SC(C)(C)[C@@H]3C(=O)O)cc1 [Example 33]
0.05 µg/mL,3.13 µg/mL,3.13 µg/mL,1.56 µg/mL,3.13 µg/mL,CC1(C)S[C@@H]2[C@H](NC(=O)C(NC(=O)c3cnc4cccnc4c3O)c3cccc(O)c3)C(=O)N2[C@H]1C(=O)O (stereo partly shown) [Example 16]
,,,0.39 µg/mL,0.78 µg/mL,CCOC(=O)Oc1ccc([C@@H](NC(=O)c2cnc3cc(Cl)ccc3c2O)C(=O)N[C@@H]2C(=O)N3[C@@H]2SC(C)(C)[C@@H]3C(=O)O)cc1 [Example 10]
,50 to 100 µg/mL,12.5 µg/mL,0.78 µg/mL,0.78 µg/mL,"CC1(C)S[C@@H]2[C@H](NC(=O)C(C(=O)O)c3ccccc3)C(=O)N2[C@H]1C(=O)O (stereo partly shown) [Carbenicillin, reference compound]"
